Results from ChEMBL document CHEMBL3885881, “DrugMatrix”.

Species: Rattus norvegicus
Assay: DrugMatrix - Regimen: Daily Repeat
Type: toxicity, organism-based, Sprague-Dawley
Design: regimen Daily Repeat, gender Male, age 6-8 weeks
Conditions: in vivo, po, 30 mg/kg, route oral GAVAGE, dose level Low, vehicle .5 % CMC; for ABSOLUTE BASOPHIL / ABSOLUTE EOSINOPHIL / ABSOLUTE LYMPHOCYTE / ABSOLUTE MONOCYTE / ABSOLUTE SEGMENTED NEUTROPHIL / BASOPHIL / EOSINOPHIL / ERYTHROCYTE COUNT / HEMATOCRIT / HEMOGLOBIN / LEUKOCYTE COUNT / LYMPHOCYTE / MEAN CORPUSCULAR HEMOGLOBIN / MEAN CORPUSCULAR HEMOGLOBIN CONCENTRATION / MEAN CORPUSCULAR VOLUME / MONOCYTE / NEUTROPHIL / NUCLEATED RED BLOOD CELLS / PLATELET COUNT: tissue Blood; for ALANINE AMINOTRANSFERASE / ALBUMIN / ALKALINE PHOSPHATASE / ASPARTATE AMINOTRANSFERASE / BLOOD UREA NITROGEN / CARBON DIOXIDE / CHLORIDE / CHOLESTEROL / CREATINE PHOSPHOKINASE / CREATININE / GLUCOSE / LACTATE DEHYDROGENASE / LIPASE / PHOSPHORUS / POTASSIUM / SODIUM / TOTAL BILIRUBIN / TOTAL PROTEIN / URIC ACID: tissue Plasma

COc1cc(OC)c(C(=O)CCCN2CCCC2)c(OC)c1 [BUFLOMEDIL]
ABSOLUTE BASOPHIL (72 h, time 3 day): 0 CELLS/uL | ABSOLUTE EOSINOPHIL (72 h, time 3 day): 0 CELLS/uL | ABSOLUTE LYMPHOCYTE (72 h, time 3 day): 12859.33 CELLS/uL | ABSOLUTE MONOCYTE (72 h, time 3 day): 198 CELLS/uL | ABSOLUTE SEGMENTED NEUTROPHIL (72 h, time 3 day): 1176 CELLS/uL | BASOPHIL (72 h, time 3 day): 0% | EOSINOPHIL (72 h, time 3 day): 0% | ERYTHROCYTE COUNT (72 h, time 3 day): 5.25 x10E6/uL | HEMATOCRIT (72 h, time 3 day): 33.97% | HEMOGLOBIN (72 h, time 3 day): 14.13 G/DL | LEUKOCYTE COUNT (72 h, time 3 day): 14.23 x10E3/uL | LYMPHOCYTE (72 h, time 3 day): 90% | MEAN CORPUSCULAR HEMOGLOBIN (72 h, time 3 day): 25.77 pg | MEAN CORPUSCULAR HEMOGLOBIN CONCENTRATION (72 h, time 3 day): 39.67 G/DL | MEAN CORPUSCULAR VOLUME (72 h, time 3 day): 64.9 fL | MONOCYTE (72 h, time 3 day): 1.33% | NEUTROPHIL (72 h, time 3 day): 8.67% | NUCLEATED RED BLOOD CELLS (72 h, time 3 day): 0 /100WBC | PLATELET COUNT (72 h, time 3 day): 1306 x10E3/uL | ALANINE AMINOTRANSFERASE (72 h, time 3 day): 53 u/L | ALBUMIN (72 h, time 3 day): 4.17 G/DL | ALKALINE PHOSPHATASE (72 h, time 3 day): 441 u/L | ASPARTATE AMINOTRANSFERASE (72 h, time 3 day): 83.33 u/L | BLOOD UREA NITROGEN (72 h, time 3 day): 16.67 mg/dL | CARBON DIOXIDE (72 h, time 3 day): 27.67 mmol/L | CHLORIDE (72 h, time 3 day): 98 MEQ/L | CHOLESTEROL (72 h, time 3 day): 75.33 mg/dL | CREATINE PHOSPHOKINASE (72 h, time 3 day): 360 u/L | CREATININE (72 h, time 3 day): 0.1 mg/dL | GLUCOSE (72 h, time 3 day): 146 mg/dL | LACTATE DEHYDROGENASE (72 h, time 3 day): 180.33 u/L | LIPASE (72 h, time 3 day): 9.33 u/L | PHOSPHORUS (72 h, time 3 day): 13.93 mg/dL | POTASSIUM (72 h, time 3 day): 6.77 MEQ/L | SODIUM (72 h, time 3 day): 143.3 MEQ/L | TOTAL BILIRUBIN (72 h, time 3 day): 0.23 mg/dL | TOTAL PROTEIN (72 h, time 3 day): 5.9 G/DL | URIC ACID (72 h, time 3 day): 1.47 mg/dL | ABSOLUTE BASOPHIL (120 h, time 5 day): 0 CELLS/uL | ABSOLUTE EOSINOPHIL (120 h, time 5 day): 0 CELLS/uL | ABSOLUTE LYMPHOCYTE (120 h, time 5 day): 10085.67 CELLS/uL | ABSOLUTE MONOCYTE (120 h, time 5 day): 133.67 CELLS/uL | ABSOLUTE SEGMENTED NEUTROPHIL (120 h, time 5 day): 980.67 CELLS/uL | BASOPHIL (120 h, time 5 day): 0% | EOSINOPHIL (120 h, time 5 day): 0% | ERYTHROCYTE COUNT (120 h, time 5 day): 5.03 x10E6/uL | HEMATOCRIT (120 h, time 5 day): 33.2% | HEMOGLOBIN (120 h, time 5 day): 13.3 G/DL | LEUKOCYTE COUNT (120 h, time 5 day): 11.2 x10E3/uL | LYMPHOCYTE (120 h, time 5 day): 91.33% | MEAN CORPUSCULAR HEMOGLOBIN (120 h, time 5 day): 26.47 pg | MEAN CORPUSCULAR HEMOGLOBIN CONCENTRATION (120 h, time 5 day): 40.07 G/DL | MEAN CORPUSCULAR VOLUME (120 h, time 5 day): 66.07 fL | MONOCYTE (120 h, time 5 day): 1% | NEUTROPHIL (120 h, time 5 day): 7.67% | NUCLEATED RED BLOOD CELLS (120 h, time 5 day): 0 /100WBC | PLATELET COUNT (120 h, time 5 day): 833 x10E3/uL | ALANINE AMINOTRANSFERASE (120 h, time 5 day): 55.67 u/L | ALBUMIN (120 h, time 5 day): 4.23 G/DL | ALKALINE PHOSPHATASE (120 h, time 5 day): 308.33 u/L | ASPARTATE AMINOTRANSFERASE (120 h, time 5 day): 81 u/L | BLOOD UREA NITROGEN (120 h, time 5 day): 17.33 mg/dL | CARBON DIOXIDE (120 h, time 5 day): 26.33 mmol/L | CHLORIDE (120 h, time 5 day): 102.33 MEQ/L | CHOLESTEROL (120 h, time 5 day): 64 mg/dL | CREATINE PHOSPHOKINASE (120 h, time 5 day): 354.67 u/L | CREATININE (120 h, time 5 day): 0.13 mg/dL | GLUCOSE (120 h, time 5 day): 152.33 mg/dL | LACTATE DEHYDROGENASE (120 h, time 5 day): 110.67 u/L | LIPASE (120 h, time 5 day): 12 u/L | PHOSPHORUS (120 h, time 5 day): 12.5 mg/dL | POTASSIUM (120 h, time 5 day): 6.61 MEQ/L | SODIUM (120 h, time 5 day): 143.1 MEQ/L | TOTAL BILIRUBIN (120 h, time 5 day): 0.2 mg/dL | TOTAL PROTEIN (120 h, time 5 day): 5.97 G/DL | URIC ACID (120 h, time 5 day): 2.27 mg/dL
